Results on one molecule are retold here after patent US12318361B2, “Methods for treating cardiovascular diseases” (Olatec Therapeutics LLC, priority 2017, dated 2025).

Assay [1] has as its system mice, intra-articular zymosan arthritis model. Briefly: Zymosan-induced knee joint arthritis in mice. Format: in vivo. The conditions noted are these: 600 mg/kg oral gavage, 5 doses, 24 h after zymosan. As to the method:
Zymosan injected directly into the knee joint of mice elicits an inflammatory response and is used as a model of arthritis (Verschure et al, Ann. Rheum Dis. 53:455-460, 1994). Endpoints measured in this model include knee joint swelling score, cytokine levels in the synovial tissue and microscopic pathology of the knee.
Arthritis was induced in mice by intra-articular injection of zymosan (180 μg) into the knee joint (at time zero) of both knees in each mouse. Mice were treated by oral gavage with vehicle (saline, n=5) or dapansutrile (drug) in vehicle (600 mg/kg, n=4) at times −25 hr, −13 hr, and −1 hr. After zymosan injection at time zero, mice were further treated with vehicle or dapansutrile (600 mg/kg) at times +11 hr and +23 hr. Mice were terminated 24 hours after the zymosan injection.
Macroscopic joint swelling was assessed on all knees after the skin is removed using a scoring system ranging from 0 to 3, with 0 being no swelling and 3 being severe swelling.
In addition, synovial membrane was taken from one knee per mouse and the cells were lysed for measurement of mouse IL-1β, using an ELISA kit from R&D Systems, Inc., following manufacturer's protocols. The results are shown as mean ±standard error of mean and statistical evaluation is performed (see FIG. 2).

The subject of a further assay is caspase-1. Briefly: Western blot for caspase-1 (p45 and p10) in J774A.1 cells after LPS/ATP stimulation. Format: cell-based, murine. The method, then: J774A.1 murine macrophages cells were stimulated with 1 μg/ml lipopolysaccharide (LPS) for 4 hours and either nigericin (NIG, 10 μM) or ATP (5 mM) was added for 1 hour. OLT1177™ was added to the cells either 30 minutes following LPS stimulation or at the same time as ATP.
A subunit of activated caspase-1 (p10) was reduced in J774A.1 cells in the presence of dapansutrile (OLT).
Background: Immunoblotting shows a protein as a band on a membrane.

Assay [2] has as its target T1, NLRP3 inflammasome (association of caspase-1 with NLRP3) (Homo sapiens, UniProt Q96P20).
T1 construct: endogenous in cells; host or cells: human monocyte-derived macrophages (HMDM) from 4 healthy donors
As to the kind of experiment: FRET analysis of NLRP3 inflammasome assembly in human monocyte-derived macrophages after LPS/ATP. Format: cell-based. The conditions noted are these: 50 μM, HMDM from 4 donors, P<0.01. The method, then:
Human monocyte-derived macrophages (HMDM) were cultured on glass slides for 5 days with GM-CSF, stimulated for 4 hours with […] LPS and then treated with 5 mM ATP for one hour. Dapansutrile (OLT1177™, 50 μM) was added to the cells either 30 minutes following LPS stimulation or at the same time as ATP.
After washing with PBS, the cells were fixed and permeabilized with 70-30 acetone-methanol as described by Gamboni et al, Physiol Rep., 2 (7), 2014. Briefly, cells were placed in a humidified slide chamber blocked for 1 hour in 10% normal donkey serum (Jackson Immunologicals, Westgrove, PA). After removal of the donkey serum, the primary antibodies to human NLRP3 (Cryo-2, AdipoGen San Diego, CA), human caspase-1 (sc-515, Santa Cruz Biotechnology) or isomolar, species-specific anti-IgG (R&D Systems) were added and kept overnight at 4° C. […] FRET images were acquired using a Marianas Imaging Station using a Zeiss 639 Plan-Apochromat objective (1.4 N/A), a Sutter Xenon light source and a Cooke SensiCam as described by Gamboni et al. The corrected FRET was calculated as FRET=Transfer-Fd/D donor-Fa/Aa acceptor as reported by Berney et al, Biophys J., 84:3992-4010, 2003. […]

In assay [3] the test system is IL-1β, IL-6 and IL-1α in hearts of mice. As to the kind of experiment: Cytokine levels in heart homogenates after in vivo lipopolysaccharide challenge. Set-up: species or system C57BL/6J mice. The conditions noted are these: 200 mg/kg IP every 12 h for 5 doses; LPS 5 mg/kg IP, 2 h; vs saline, P<0.05. As to the method: C57BL/6J mice male mice, 22-26 grams (Jackson Laboratories, Bar Harbor, ME) were treated with 200 mg/kg dapansutrile (OLT1177™) in 200 μl of saline or the matching volume of vehicle (saline) intraperitoneally (IP) every 12 hours for 5 doses. One hour after the last dose or saline, the animals were injected IP with 200 μl of lipopolysaccharide (LPS, E. coli, 055: B5, Sigma-Aldrich) at 5 mg/kg and sacrificed after 2 h. Cytokines were measured in hearts homogenates. Tissue homogenates were lysed using RIPA buffer (Sigma-Aldrich) containing a mixture of protease inhibitors (Roche, Indianapolis, IN), centrifuged at 13,000g for 20 minutes at 4° C., and the supernatants were assayed for cytokine levels of IL-1β, IL-6 and IL-1α. The cytokine concentrations were corrected for total protein content.
The dose of LPS that was used in the study covers ischemic inflammation, vascular inflammation and cell-mediated inflammation.

The subject of assay [4] is rats, thrombus formation in abdominal aorta. As to the kind of experiment: Thrombus formation in anesthetized rats (abdominal aorta stenosis and compression injury). The conditions noted are these: intravenous via tail vein, 5 min before injury; written in present tense. It counts as in vivo, rats (CD-1). As to the method:
To evaluate the effect of dapansutrile on thrombus formation in vivo, the following experimental protocol is performed.
Rats (CD-1; male; approximately 350 grams; Charles River, Raleigh, NC), are anesthetized with sodium pentobarbital (70 mg/kg i.p.). The abdomens are shaved and a 22 gauge intravenous catheter is inserted into a lateral tail vein. A midline incision is made and the intestines are wrapped in saline-soaked gauze and positioned so the abdominal aorta is accessible. […] All branches from the aorta in this section are ligated with 4-0 silk suture. A 2.5 mm diameter flow probe connected to a Transonic flow meter is placed on the artery and a baseline (pre-stenosis) flow is recorded. Two clips are placed around the artery decreasing the vessel diameter by approximately 80%. A second baseline flow measurement is taken (post-stenosis) and the hyperemic response is tested. Animals are then treated with either Rho kinase inhibitor compound or saline intravenously via tail vein catheter. Thrombosis is induced five minutes after treatment by repeated external compressions of the vessel with hemostatic forceps. Two minutes post-injury, the vessel compressions are repeated and a 10 minute period of flow monitoring is started. Animals are monitored continuously for a minimum of the first ten minutes post-injury. […]

T1 sequence (Q96P20 whole entry): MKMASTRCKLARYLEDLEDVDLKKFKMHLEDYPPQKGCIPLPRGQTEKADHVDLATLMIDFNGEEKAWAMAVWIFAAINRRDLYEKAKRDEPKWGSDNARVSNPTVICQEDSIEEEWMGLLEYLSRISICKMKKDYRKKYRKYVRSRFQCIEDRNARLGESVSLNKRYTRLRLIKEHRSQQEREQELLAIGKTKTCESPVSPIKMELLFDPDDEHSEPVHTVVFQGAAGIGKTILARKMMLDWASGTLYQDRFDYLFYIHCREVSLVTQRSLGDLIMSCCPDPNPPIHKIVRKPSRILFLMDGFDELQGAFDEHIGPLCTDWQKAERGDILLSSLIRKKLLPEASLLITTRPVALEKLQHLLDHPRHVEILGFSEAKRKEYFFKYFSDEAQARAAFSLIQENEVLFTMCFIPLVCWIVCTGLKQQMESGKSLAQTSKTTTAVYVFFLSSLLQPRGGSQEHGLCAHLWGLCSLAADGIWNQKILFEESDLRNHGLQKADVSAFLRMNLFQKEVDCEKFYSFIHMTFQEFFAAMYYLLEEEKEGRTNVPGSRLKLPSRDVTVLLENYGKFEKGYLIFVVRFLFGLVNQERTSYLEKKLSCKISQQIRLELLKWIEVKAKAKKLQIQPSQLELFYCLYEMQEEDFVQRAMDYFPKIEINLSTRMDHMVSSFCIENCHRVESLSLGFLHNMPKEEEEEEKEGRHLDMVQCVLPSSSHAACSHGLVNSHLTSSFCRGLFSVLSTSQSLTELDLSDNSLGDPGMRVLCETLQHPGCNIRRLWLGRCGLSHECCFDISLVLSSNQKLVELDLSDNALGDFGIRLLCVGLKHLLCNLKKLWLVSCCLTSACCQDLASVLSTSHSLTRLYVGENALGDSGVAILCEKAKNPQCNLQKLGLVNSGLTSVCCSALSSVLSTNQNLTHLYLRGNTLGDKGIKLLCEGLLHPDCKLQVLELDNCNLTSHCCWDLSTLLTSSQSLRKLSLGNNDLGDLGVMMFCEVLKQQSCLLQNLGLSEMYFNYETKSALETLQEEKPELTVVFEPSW

For `CS(=O)(=O)CCC#N` [OLT1177™, 3-methanesulfonyl-propionitrile], the “level of IL-1β in synovial membrane” value in assay [1] (vs untreated mice) was “significantly reduced”. For the same molecule, the “macroscopic joint swelling (score 0 to 3)” value in assay [1] (vs vehicle-treated mice) is recorded as “significant reduction”. Moreover, the “subunit of activated caspase-1 (p10), Western blot” value in the assay with caspase-1 is reported as “reduced”. In addition, the “association of caspase-1 with NLRP3 (FRET intensity)” value in assay [2] is recorded as “reduced”. Further, in assay [3], the “cytokine level of IL-1α in hearts” value is “reduced”, the “cytokine level of IL-1β in hearts” value is “reduced” and the “cytokine level of IL-6 in hearts” value was “reduced”. In assay [4], the “histological evidence of thrombosis” value is on record as “decrease” and the “vessel injury-induced flow reduction” value is reported as “decrease”.
